What is called half-life is the time needed for the level to fall by half in the phase considered. High values mean slow decline, low ones rapid decline.

One series has as its target T1, thermolysin (Bacillus thermoproteolyticus, UniProt P00800).
T1 sequence (P00800 233-548): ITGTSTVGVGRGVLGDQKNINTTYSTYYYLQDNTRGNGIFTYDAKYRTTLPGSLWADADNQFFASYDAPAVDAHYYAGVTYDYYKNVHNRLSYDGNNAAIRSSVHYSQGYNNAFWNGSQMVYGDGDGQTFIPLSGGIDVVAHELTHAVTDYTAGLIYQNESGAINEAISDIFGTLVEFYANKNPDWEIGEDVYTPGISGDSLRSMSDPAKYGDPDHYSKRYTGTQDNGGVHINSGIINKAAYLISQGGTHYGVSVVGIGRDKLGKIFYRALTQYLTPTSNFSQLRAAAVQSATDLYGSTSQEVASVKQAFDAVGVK
The series is described as follows: Thermolysin digestion of linker variants (half-life to thermolysin degradation, MALDI-TOF MS). In kind it is in vitro ADME. Conditions: for half-life: thermolysin in digestion buffer, average ± spread of three independent trials, quantitative MALDI-TOF MS; for half-life / Half-life to thermolysin degradation, Trial 1 / Half-life to thermolysin degradation, Trial 2 / Half-life to thermolysin degradation, Trial 3: thermolysin 1 µg/µL (25 µL) added to linker 2 µg/µL (25 µL), 50 mM Tris·HCl, 0.5 mM CaCl2, pH 8.0, 37 °C, aliquots 0-420 min; for half-life / Half-life to thermolysin degradation, Trial 2 / Half-life to thermolysin degradation, Trial 3: first-order exponential decay fit; for Half-life to thermolysin degradation, Trial 1: trial 1 of three independent trials, first-order exponential decay fit of full-length linker; for Half-life to thermolysin degradation, Trial 1 / Half-life to thermolysin degradation, Trial 2 / Half-life to thermolysin degradation, Trial 3: quantitative MALDI-TOF MS with internal standard; for Half-life to thermolysin degradation, Trial 2: trial 2 of three independent trials; for Half-life to thermolysin degradation, Trial 3: trial 3 of three independent trials. From the text:
O-Mannosylation is strongly preferred for proteolysis protection of a model fungal IDP. To investigate how glycan identity affects IDP proteolytic stability, we employed the naturally O-mannosylated linker from the Trichoderma reesei glycoside hydrolase family 7 cellobiohydrolase, TrCel7A, as a model.[10] This enzyme is one of the most important industrial cellulases and its linker is a well-studied O-mannosylated IDP.[11]–[14] The α-anomeric configuration was chosen since it is the only type reported so far in reducing terminal mannose residues of O-mannosylated proteins from fungi and yeasts.[8] We used […] glycopeptide synthesis[12],[15],[16] to produce four variants (Fig. 1), including the non-glycosylated linker, and measured the half-life to thermolysin degradation with MALDI-TOF MS (Fig. S1–S4 ^†).[15]–[19] […]
1.1. Experimental material and equipm ent
All commercial reagents and solvents were used as received. All LC-MS analyses were performed using a Waters Acquity TM Ultra Performance LC system equipped with Acquity UPLC® BEH 300 C4, 1.7µm, 2.1 x 100 mm column at flow rates of 0.3 mL/min. The mobile phase for LC -MS analysis was a mixture of H2O (0.1% formic acid, v /v, A) and acetonitrile (0.1% formic acid, v/v, B). […]
Mass spectrometric analysis done with a Waters SYNAPT G2-S LC-MS system was us ed to confirm the identity and homogeneity of the synthetic peptides. MALDI-TOF mas s spectrometr ic analysis done with an AB/Sciex Voyager DE-STR system was used to determine the proteolytic stability (half-life to thermolysin degradation) of the synthetic peptides (Fig. S1-S4). […]
1.3. General procedure for the thermolysin digestion of linker variants The thermolysin digestions were performed following previously described procedures.2 The digestion s of glycosylated linkers were carried out at 37 °C in 25 µL of digestion buffer (50 mM Tris·HCl buffer, 0.5 mM CaCl2, pH 8.0) with an initial linker concentration of 2 µg/µL. 25 µL of thermolysin (1 µg/µL in the digestion buffer) was added to linker solution; 1 µL aliquots were taken at specific time intervals (0, […]
µL of acetonitrile/H2O/AcOH (20/20/1, v/v) and 3 µL of standard solution [0.17 µg/µL non-glycosylated linker in acetonitrile/H2O/AcOH (20/20/1, v/v)]. Each sample was analyzed by quantitative MALDI-TOF MS to calculate the change in concentration of glycosylated linkers with time. The digestion rate was determined by monitoring and fitting data to the first-order exponential decay of the full-length glycosylated linkers over time. Digestion and analysis of non-glycosylat ed linker was done exactly a s described above for glycosylated linkers except that the Lman was used as the internal standard. All the digestion processes were repeated for three independent trials.
1.4. Temperature replica exchange simulations
Model syst ems. This work compares the dynamical and structural behavior of four variants of the Cel7A linker from Trichoderma reesei (TrCel7A). This set includes the non-glycosylated linker and the linker homogeneously decorated with O-linked α-mannosyl, α-glucosyl, and α-galactosyl moieties (Fig. S9A).
Complementary simulations and analyses were also performed with the linker decorated with longer glycans comprising mannobiosyl and galactobiosyl moieties, as well as with the putative natural decoration proposed by Harrison et al.3 (Fig. S9B) . A set of four variants of the “PT linker” was also studied, including the non -glycosylated linker and the variants with the same three glycans (Fig. S9C).
Finally, we also performed simulations of tripeptides with a single site of glyco sylation, resulting in the […]

Residues, ends and D or L forms follow the SMILES beside them. No end group written: not given here. *: point of attachment. αMan = OC[C@H]1O[C@H](*)[C@@H](O)[C@@H](O)[C@@H]1O; X2 = OC[C@H]1O[C@H](*)[C@H](O)[C@@H](O)[C@@H]1O; X1 = OC[C@H]1O[C@H](*)[C@H](O)[C@@H](O)[C@H]1O

Consider `C[C@H](NC(=O)[C@@H]1CCCN1C(=O)[C@H](CCCNC(=N)N)NC(=O)[C@H](CCCNC(=N)N)NC(=O)[C@@H](NC(=O)[C@@H](NC(=O)[C@@H](NC(=O)[C@@H](NC(=O)CNC(=O)[C@@H]1CCCN1C(=O)[C@@H]1CCCN1C(=O)[C@H](CC(N)=O)NC(=O)CNC(=O)CNC(=O)[C@@H]1CCCN1C(=O)[C@@H]1CCCN1C(=O)[C@H](CC(N)=O)NC(=O)CN)[C@@H](C)O[C@H]1O[C@H](CO)[C@H](O)[C@H](O)[C@H]1O)[C@@H](C)O[C@H]1O[C@H](CO)[C@H](O)[C@H](O)[C@H]1O)[C@@H](C)O[C@H]1O[C@H](CO)[C@H](O)[C@H](O)[C@H]1O)[C@@H](C)O[C@H]1O[C@H](CO)[C@H](O)[C@H](O)[C@H]1O)C(=O)N[C@H](C(=O)N[C@H](C(=O)N[C@H](C(=O)NCC(=O)N[C@@H](CO[C@H]1O[C@H](CO)[C@H](O)[C@H](O)[C@H]1O)C(=O)N[C@@H](CO[C@H]1O[C@H](CO)[C@H](O)[C@H](O)[C@H]1O)C(=O)N1CCC[C@H]1C(=O)NCC(=O)N1CCC[C@H]1C(=O)O)[C@@H](C)O[C@H]1O[C@H](CO)[C@H](O)[C@H](O)[C@H]1O)[C@@H](C)O[C@H]1O[C@H](CO)[C@H](O)[C@H](O)[C@H]1O)[C@@H](C)O[C@H]1O[C@H](CO)[C@H](O)[C@H](O)[C@H]1O` [Lgal] (H-GNPPGGNPPGT(X1)T(X1)T(X1)T(X1)RRPAT(X1)T(X1)T(X1)GS(X1)S(X1)PGP-OH; N-terminus and C-terminus assumed), for which the enhancement of protection against proteolysis relative to non-glycosylated parent IDP turned out to be 10 fold. Besides, on thermolysin, the half-life was 9.8 ± 2 min; the “Half-life to thermolysin degradation, Trial 1” value (“Half-life … Trial 1” below) was found to be 8.5 min; the “Half-life to thermolysin degradation, Trial 2” value (“Half-life … Trial 2” below) turned out to be 8.8 min; the “Half-life to thermolysin degradation, Trial 3” value (“Half-life … Trial 3” below) was determined as 12.1 min.

For `C[C@H](NC(=O)[C@@H]1CCCN1C(=O)[C@H](CCCNC(=N)N)NC(=O)[C@H](CCCNC(=N)N)NC(=O)[C@@H](NC(=O)[C@@H](NC(=O)[C@@H](NC(=O)[C@@H](NC(=O)CNC(=O)[C@@H]1CCCN1C(=O)[C@@H]1CCCN1C(=O)[C@H](CC(N)=O)NC(=O)CNC(=O)CNC(=O)[C@@H]1CCCN1C(=O)[C@@H]1CCCN1C(=O)[C@H](CC(N)=O)NC(=O)CN)[C@@H](C)O[C@H]1O[C@H](CO)[C@@H](O)[C@H](O)[C@H]1O)[C@@H](C)O[C@H]1O[C@H](CO)[C@@H](O)[C@H](O)[C@H]1O)[C@@H](C)O[C@H]1O[C@H](CO)[C@@H](O)[C@H](O)[C@H]1O)[C@@H](C)O[C@H]1O[C@H](CO)[C@@H](O)[C@H](O)[C@H]1O)C(=O)N[C@H](C(=O)N[C@H](C(=O)N[C@H](C(=O)NCC(=O)N[C@@H](CO[C@H]1O[C@H](CO)[C@@H](O)[C@H](O)[C@H]1O)C(=O)N[C@@H](CO[C@H]1O[C@H](CO)[C@@H](O)[C@H](O)[C@H]1O)C(=O)N1CCC[C@H]1C(=O)NCC(=O)N1CCC[C@H]1C(=O)O)[C@@H](C)O[C@H]1O[C@H](CO)[C@@H](O)[C@H](O)[C@H]1O)[C@@H](C)O[C@H]1O[C@H](CO)[C@@H](O)[C@H](O)[C@H]1O)[C@@H](C)O[C@H]1O[C@H](CO)[C@@H](O)[C@H](O)[C@H]1O` [Lglc] (H-GNPPGGNPPGT(X2)T(X2)T(X2)T(X2)RRPAT(X2)T(X2)T(X2)GS(X2)S(X2)PGP-OH; N-terminus and C-terminus assumed), on thermolysin, the half-life was determined as 53.7 ± 8.1 min; the “Half-life … Trial 1” value worked out at 53.3 min; the “Half-life … Trial 2” value was 62.0 min; the “Half-life … Trial 3” value worked out at 45.9 min.

Take `C[C@H](NC(=O)[C@@H]1CCCN1C(=O)[C@H](CCCNC(=N)N)NC(=O)[C@H](CCCNC(=N)N)NC(=O)[C@@H](NC(=O)[C@@H](NC(=O)[C@@H](NC(=O)[C@@H](NC(=O)CNC(=O)[C@@H]1CCCN1C(=O)[C@@H]1CCCN1C(=O)[C@H](CC(N)=O)NC(=O)CNC(=O)CNC(=O)[C@@H]1CCCN1C(=O)[C@@H]1CCCN1C(=O)[C@H](CC(N)=O)NC(=O)CN)[C@@H](C)O[C@H]1O[C@H](CO)[C@@H](O)[C@H](O)[C@@H]1O)[C@@H](C)O[C@H]1O[C@H](CO)[C@@H](O)[C@H](O)[C@@H]1O)[C@@H](C)O[C@H]1O[C@H](CO)[C@@H](O)[C@H](O)[C@@H]1O)[C@@H](C)O[C@H]1O[C@H](CO)[C@@H](O)[C@H](O)[C@@H]1O)C(=O)N[C@H](C(=O)N[C@H](C(=O)N[C@H](C(=O)NCC(=O)N[C@@H](CO[C@H]1O[C@H](CO)[C@@H](O)[C@H](O)[C@@H]1O)C(=O)N[C@@H](CO[C@H]1O[C@H](CO)[C@@H](O)[C@H](O)[C@@H]1O)C(=O)N1CCC[C@H]1C(=O)NCC(=O)N1CCC[C@H]1C(=O)O)[C@@H](C)O[C@H]1O[C@H](CO)[C@@H](O)[C@H](O)[C@@H]1O)[C@@H](C)O[C@H]1O[C@H](CO)[C@@H](O)[C@H](O)[C@@H]1O)[C@@H](C)O[C@H]1O[C@H](CO)[C@@H](O)[C@H](O)[C@@H]1O` [Lman] (H-GNPPGGNPPGT(αMan)T(αMan)T(αMan)T(αMan)RRPAT(αMan)T(αMan)T(αMan)GS(αMan)S(αMan)PGP-OH; N-terminus and C-terminus assumed): the “Improvement of proteolytic stability over the non-glycosylated linker LNG” value at thermolysin (ratio of half-lives to thermolysin degradation, relative to LNG) stood at 112 fold. Besides, the “Proteolysis protection over the O-galactosylated linker (Lgal)” value on thermolysin (ratio of half-lives to thermolysin degradation, relative to Lgal) turned out to be 16 fold. For the same compound, the “Proteolysis protection over the O-glucosylated linker (Lglc)” value on thermolysin (ratio of half-lives to thermolysin degradation, relative to Lglc) amounted to 3 fold. In addition, at thermolysin, the half-life was 164 ± 32.9 min; the “Half-life … Trial 1” value was 163.9 min; the “Half-life … Trial 2” value came out at 196.4 min; the “Half-life … Trial 3” value worked out at 130.5 min.

Turning to GNPPGGNPPGTTTTRRPATTTGSSPGP-OH [LNG], on thermolysin, the half-life was determined as 1.5 ± 0.2 min; the “Half-life … Trial 1” value was found to be 1.6 min; the “Half-life … Trial 2” value was 1.5 min; the “Half-life … Trial 3” value was 1.2 min.

(Values after publication PMC5939190, “The impact of O-glycan chemistry on the stability of intrinsically disordered proteins” (Chemical Science, 2018).)
